Holding throughout (format): cell-based
For one assay, the system named is Proteus vulgaris SRI 180. Kind of assay: agar disc diffusion assay, P. vulgaris. Particulars: SRI180, 240 ug/disc, about 24 hr at 37° C., Mueller-Hinton agar, read-out: Diameter of the zone of inhibition, P. vulgaris. As for the experimental part:
(§1) The activity of the compounds is determined using the following assay. The compound is dissolved in DMSO at a concentration of 6 mg/ml and then diluted with water to a final concentration of 3 mg/ml in 50% DMSO (% DMSO was shown not to be inhibitory to the test organisms). An aliquot (0.08 ml) of each drug solution was transferred to filter paper discs (12.7 mm diameter, Scmeicherand Schuell) for use in the agar diffusion assay. The concentration of each drug on the filter paper disc was 240 ug/disc. The test organisms included the following: Gram-positive aerobes (Staphylococcus aureus SRI 1323, Streptococcus pneumoniae SRI 1167); Gram-negative aerobe (Proteus vulgaris SRI 180); and the yeast Candida albicans SRI 523. An agar disc diffusion assay was used to evaluate the antimicrobial activity of the test compounds. Briefly, cultures were prepared from 16-20 hr agar slant cultures by inoculating in physiological saline to a turbidity equivalent to a #0.5 McFarland turbidity standard for the bacteria and a #3 McFarland standard for C. albicans. The surface of Mueller-Hinton agar (15×100 mm plates, mm) were evenly inoculated with each standardized culture using a cotton swab. Filter paper discs containing the drug concentration listed above were then placed on the inoculated agar plates along with a disc containing the solvent used to dissolve each drug. The plates were incubated at 37° C. for about 24 hr and the diameters of the zones of inhibition measured with a vernier caliper. Positive control drugs consisted of streptomycin for use with the bacterial strains and 5-fluorocytosine for use with C. albicans. The positive control drugs were assayed as described above for the compounds of the present invention using the same concentration.
(Agar diffusion results depend on both activity and mobility in agar.)

Assay [1] has as its system Staphylococcus aureus SRI 1323. In words: agar disc diffusion assay, S. aureus. Particulars: SRI1323, 240 ug/disc, about 24 hr at 37° C., Mueller-Hinton agar, read-out: Diameter of the zone of inhibition, S. aureus. As for the experimental part:
as §1

Assay [2] concerns Streptococcus pneumoniae SRI 1167. In words: agar disc diffusion assay, S. pneumoniae. As to conditions: 240 ug/disc, about 24 hr at 37° C.; for zone of inhibition at 240 µg/disc: Streptococcus pneumoniae, SRI1167, Mueller-Hinton agar, read-out: Diameter of the zone of inhibition, S. pneumoniae. As for the experimental part: as §1
Another assay deals with Candida albicans SRI 523. Kind of assay: agar disc diffusion assay, C. albicans. As to conditions: SRI523, 240 ug/disc, about 24 hr at 37° C., Mueller-Hinton agar, read-out: Diameter of the zone of inhibition, C. albicans. As for the experimental part:
as §1

Assay [3] relates to microtubule cytoskeleton of cultured human CG neuroblastoma cells. Kind of assay: Antimicrotubule activity (tubulin immunofluorescence microscopy). Particulars: Neuroblastoma cell, read-out: Concentration where microtubule destabilization occurs. The procedure:
The compounds of the invention according to formula I are effective in destabilizing microtubules, thus are useful in treating certain neoplastic diseases. Indirect immunofluorescence microscopy using the monoclonal antibodies to tubulin is used herein to determine the activity of the compounds of this invention in promoting depolymerization of the microtubule cytoskeleton in cultured cells. The following assay was employed.
Cultured human CG neuroblastoma cells were seeded 1:3 from confluent cultures onto sterile 11×22 mm coverslips in 6 well tissue culture plates 16 hr prior to treatment. The following day, the tissue culture medium is removed and the cells are exposed to various concentrations of compounds of this invention in Krebs Ringer Hepes (KRH) buffer containing a final concentration of 0.5% DMSO as carrier. Incubations were performed at 37° C. in a humidified 5% CO2 atmosphere for 2 hr. After incubation, the cells were fixed in 3% TEM grade formaldehyde in PBS for 45 min at room temperature.
To visualize the effects of the compounds of the invention on the microtubule cytoskeleton, the cells were processed for tubulin immunofluorescence. Briefly, the cells were permeabilized in 0.5% Triton-X 100 in PBS for 5 min. The cells were washed 2× with PBS and aldehydes reduced using 0.5 mg/ml NaBH4 in PBS for 5 min. Subsequently, the cells were blocked for 10 min in 1.5% BSA and 1.5% nonfat dry milk in PBS (blocking solution, BS) for 10 min. The cells were then incubated for 30 min at 37° C. with the monoclonal antibody Tu27B which recognizes b-tubulin (dilution 1:20 in BS). Subsequently, the cells were washed 2× in PBS and once in BS. The cells were then incubated for 30 min at 37° C. with sheep antimouse IgG conjugated to FITC. After incubation, the cells were washed 2× in PBS and once in BS and incubated. for 30 min at 37° C. with rabbit antisheep IgG conjugated to FITC. The cells were rinsed in PBS, counterstained with Hoechst 33285 in PBS (1 μg/ml), and rinsed in PBS. The coverslips were mounted in 9:1 glycerol:PBS containing 1 mg/ml p-phenylenediamine and sealed with nail polish.
The cells were viewed using a Jenalumar epifluorescence microscope equipped with the proper filters for Fluorescein Isothiocyanate (FITC) excitation and emission. Lack of effect of a compound is evidenced by the presence of an intact microtubule network in interphase cells, or a mitotic spindle dividing cells. Antineoplastic compounds of the invention at effective doses result in the disapperance of microtubules in both interphase and mitotic cells.

The mark [4] stands for this setting: 2 hr at 37° C., 0.5% DMSO in KRH.

Counter-ions that a name gives are not always drawn. Like-named read-outs stand apart in the source and are kept apart here.

Usually zone of inhibition stands for the extent of the growth-free halo in a diffusion test. As to `O=C(CCN1CCN(Cc2ccccc2)CC1)c1csc([N+](=O)[O-])c1` [Example 80, 1-(5"-Nitro-3"-thienyl)-3-(4'-benzyl-1'-piperazinyl)-1-propanone dihydrochloride], the zone of inhibition at 240 µg/disc with Proteus vulgaris SRI 180 came to 13.8 mm; in assay [1], 17.2 mm; in the assay on Candida albicans SRI 523, 14.5 mm. Also, the “Diameter of the zone of inhibition, S. pneumoniae (symbol)” value in assay [2] (zone too large to measure) is listed as “+”.
Take `O=C(CCN1CCN(Cc2ccccc2)CC1)c1ccc(C2CCCCC2)cc1` [Example 27, 1-(p-Cyclohexylphenyl)-3-(4'-benzyl-1'-piperazinyl)-1-propanone dihydrochloride]: the minimal effective concentration in assay [3] (setting [4]) amounted to 20 µM.
Turning to `O=C(CCN1CCN(Cc2ccccc2)CC1)c1ccc(Nc2ccc([N+](=O)[O-])cc2[N+](=O)[O-])cc1` [Example 113, 1-(4"-[2'",4'"-Dinitrophenylamino]phenyl)-3-(4'-benzyl-1'-piperazinyl)-1-propanone dihydrochloride], in assay [3] (2 h), the minimal effective concentration worked out at 20 µM.
Consider `O=C(CCN1CCN(Cc2cc(F)ccc2F)CC1)c1ccsc1` [Example 38, 1-(3"-Thienyl)-3-[4'-(2'",5'"-difluorobenzyl)-1'-piperazinyl]-1-propanone dihydrochloride], for which, in assay [3] (setting [4]), the minimal effective concentration came to 20 µM.
`O=C(CCN1CCN(Cc2ccccc2)CC1)c1cc([N+](=O)[O-])c(Cl)s1` [Example 95, 1-(5"-Chloro-4"-nitro-2"-thienyl)-3-(4'-benzyl-1'-piperazinyl)-1-propanone dihydrochloride]: the minimal effective concentration in assay [3] (setting [4]) stood at 20 µM.
In the case of `O=C(CCN1CCN(C(=O)c2ccccc2C(F)(F)F)CC1)c1ccccc1F` [Example 43, 1-(o-Fluorophenyl)-3-[4'-(o-trfuoromethylbenzoyl)-1'-piperazinyl]-1-propanone hydrochloride], the zone of inhibition at 240 µg/disc amounted to 15.9 mm with Proteus vulgaris SRI 180, 17.7 mm in assay [1], 25.3 mm in assay [2] and 22.5 mm in the assay with Candida albicans SRI 523.
Turning to `O=C(CCN1CCN(Cc2ccccc2)CC1)c1conc1-c1ccccc1` [Example 112, 1-(3"-Phenylisoxazol-4"-yl)-3-(4'-benzyl-1'-piperazinyl)-1-propanone dihydrochloride], the minimal effective concentration in assay [3] (setting [4]) came out at 20 µM.
The same measure, in the same setting: the same measure for `O=C(CCN1CCN(C(=O)c2c(F)cccc2F)CC1)c1ccccc1F` [Example 41, 1-(o-Fluorophenyl)-3-[4'-(2",6"-difluorobenzoyl)-1'-piperazinyl]-1-propanone hydrochloride]: 20 µM.
With `O=C(CCN1CCN(C(c2ccccc2)c2ccc(Cl)cc2)CC1)c1ccc(Br)s1` (centres unmarked) [Example 78, 1-(5"-Bromo-2"-thienyl)-3-[4'-(1'"-p-chlorophenyl-1'"-phenylmethyl)-1'-piperazinyl]-1-propanone dihydrochloride], the zone of inhibition at 240 µg/disc in the assay on Proteus vulgaris SRI 180 came to 14.5 mm; in assay [1], 16.2 mm; in assay [2], 19.7 mm; in the assay on Candida albicans SRI 523 it was 15.2 mm.
Turning to `O=C(CCN1CCN(Cc2ccccc2)CC1)c1cccs1` [Example 7, 1-(2"-Thienyl)-3-(4'-benzyl-1'-piperazinyl)-1-propanone dihydrochloride], the minimal effective concentration in assay [3] (setting [4]) was 20 µM.
`O=C(CCN1CCN(Cc2ccccc2)CC1)c1ccc(F)c(Br)c1` [Example 25, 1-(p-Fluoro-m-bromophenyl)-3-(4'-benzyl-1'-piperazinyl)-1-propanone dihydrochloride]: the zone of inhibition at 240 µg/disc was determined as 16 mm with Proteus vulgaris SRI 180, 27.5 mm in assay [1], 36.3 mm in assay [2] and 26 mm in the assay with Candida albicans SRI 523.
`O=C(CCN1CCN(Cc2ccccc2)CC1)c1ccc([N+](=O)[O-])cc1` [Example 5, 1-(p-Nitrophenyl)-3-(4'-benzyl-1'-piperazinyl)-1-propanone dihydrochloride]: the minimal effective concentration in assay [3] (setting [4]) came to 4 µM. Also, the zone of inhibition at 240 µg/disc in the assay with Proteus vulgaris SRI 180 came out at 17.3 mm; in assay [1], 22.8 mm; in assay [2], 29.9 mm; in the assay with Candida albicans SRI 523 it was 17.6 mm.
`N#Cc1ccc(C(=O)CCN2CCN(Cc3ccccc3)CC2)s1` [Example 85, 1-(5"-Cyano-2"-thienyl)-3-(4'-benzyl-1'-piperazinyl)-1-propanone dihydrochloride]: the minimal effective concentration in assay [3] (setting [4]) turned out to be 20 µM.
Consider `N#Cc1cccc(C(=O)CCN2CCN(Cc3ccccc3)CC2)c1` [Example 60, 1-(m-Cyanophenyl)-3-(4'-benzyl-1'-piperazinyl)-1-propanone dihydrochloride], for which, in assay [3] (setting [4]), the minimal effective concentration came out at 20 µM.
Consider `O=C(CCN1CCN(Cc2ccccc2)CC1)c1ccc(F)c2ccccc12` [Example 21, 1-(4"-Fluoronaphth-1"-yl)-3-(4'-benzyl-1'-piperazinyl)-1-propanone dihydrochloride], for which the minimal effective concentration in assay [3] (setting [4]) stood at 20 µM. The zone of inhibition at 240 µg/disc in the assay on Proteus vulgaris SRI 180 turned out to be 0 mm; in assay [1], 33.8 mm; in assay [2], 40.7 mm; in the assay with Candida albicans SRI 523, 26.6 mm.

Values taken from patent US6306857A, “Methods for treating or preventing alzheimer's disease using substituted 1-aryl-3-piperazin-1'-yl propanones” (Molecular Geriatrics Corporation, priority 1999, dated 2001).
